Source: the NIST ThermoML archive (doi:10.1021/je025651k)

How the values were obtained:
[1] = Liquid; for mass density: 298.15 K, 101.33 kPa
[2] = refractive index (Na D-line) (dimensionless); conditions: 298.15 K, 101.33 kPa, Liquid

CCC(O)CC [3-pentanol]
Conditions | mass density [kg/m3] | refractive index | vapor or sublimation pressure [kPa]
[1], 293.8 K | – | – | 0.84
[1], 300.8 K | – | – | 1.33
[1], 308 K | – | – | 2.11
[1], 315.4 K | – | – | 3.35
[1], 323 K | – | – | 5.31
[1], 331.1 K | – | – | 8.41
[1], 339.8 K | – | – | 13.33
[1], 349.3 K | – | – | 21.13
[1], 359.4 K | – | – | 33.49
[1], 370.5 K | – | – | 53.08
[1], 382.9 K | – | – | 84.13
[1], 388.38 K | – | – | 101.32
[1], 388.7 K | – | – | 101.32
[1], vibrating tube | 815.5 | – | –
[2], Abbe refractometer | – | 1.4087 | –

CCCC(C)=O [pentan-2-one]
Conditions | mass density [kg/m3] | refractive index | vapor or sublimation pressure [kPa]
[1], 329.8 K | – | – | 20.44
[1], 336.3 K | – | – | 26.55
[1], 342.1 K | – | – | 33.04
[1], 347.2 K | – | – | 39.99
[1], 351.5 K | – | – | 46.57
[1], 355.5 K | – | – | 53.47
[1], 358.9 K | – | – | 59.95
[1], 362 K | – | – | 66.61
[1], 365 K | – | – | 73.28
[1], 367.7 K | – | – | 79.91
[1], 370.3 K | – | – | 86.76
[1], 372.6 K | – | – | 93.11
[1], 375 K | – | – | 100.06
[1], 375.09 K | – | – | 101.32
[1], 377.2 K | – | – | 106.83
[1], 379.3 K | – | – | 113.61
[1], 381.2 K | – | – | 120.11
[1], 383 K | – | – | 126.54
[1], 384.8 K | – | – | 133.92
[1], vibrating tube | 801.47 | – | –
[2], Abbe refractometer | – | 1.3881 | –

CCC(=O)CC [pentan-3-one]
Conditions | mass density [kg/m3] | refractive index | vapor or sublimation pressure [kPa]
[1], 290 K | – | – | 3.42
[1], 309.9 K | – | – | 9.21
[1], 320 K | – | – | 14.22
[1], 330.6 K | – | – | 22.33
[1], 341.4 K | – | – | 33.64
[1], 350.4 K | – | – | 46.5
[1], 361.3 K | – | – | 66.6
[1], 367.5 K | – | – | 82.09
[1], 371 K | – | – | 90.18
[1], 371.5 K | – | – | 91.82
[1], 374.75 K | – | – | 101.32
[1], 375.2 K | – | – | 102.52
[1], Vibrating tube method | 809.43 | – | –
[2], Standard Abbe refractometry | – | 1.39 | –
